Literature values as cited in US4410516A, “1-N(αHydroxy-ω-aminoalkanoyl) derivatives of 5,3',4'-trideoxy- or 5,3', 4'-trideoxy-6'-N- methyl- or 5, 3', 4',6"-tetradeoxykannamyci B and production thereof” (Zaidan Hojin Biseibutsu Kagaku Kenkyu Kai, priority 1981, dated 1983).
“Also recorded” adds a separate entry of the source.

Assays:
[1] = system: animals, including men; conditions: in words, other filings; cited from earlier work
[2] = in words, other filings; cited from earlier work
[3] = system: bacteria; conditions: in words, earlier work / other filings; cited from earlier work

SMILES: C[C@@H]1C[C@H](N)[C@@H](O)[C@@H](O[C@@H]2[C@@H](O)[C@H](O[C@H]3O[C@H](CN)CC[C@H]3O)[C@@H](N)C[C@H]2NC(=O)[C@@H](O)CCN)O1 [3',4',4",6"-tetradeoxyamikacin]
- acute toxicity [1]: low acute toxicity
- oto-toxicity [2]: low oto-toxicity
- antibacterial activity [3]: useful antibacterial activity as high as that of amikacin

SMILES: C[C@H]1O[C@H](O[C@@H]2[C@@H](O)[C@H](O[C@H]3O[C@H](CN)CC[C@H]3O)[C@@H](N)C[C@H]2NC(=O)[C@@H](O)CCN)[C@H](O)[C@@H](N)[C@@H]1O [3',4',6"-trideoxyamikacin]
- acute toxicity [1]: low acute toxicity
- oto-toxicity [2]: low oto-toxicity
- antibacterial activity [3]: useful antibacterial activity as high as that of amikacin

SMILES: NCC[C@H](O)C(=O)N[C@@H]1C[C@H](N)[C@@H](O[C@H]2O[C@H](CN)CC[C@H]2O)[C@H](O)[C@H]1O[C@H]1O[C@H](CO)[C@@H](O)[C@H](N)[C@H]1O [3',4'-dideoxyamikacin]
- acute toxicity [1]: low acute toxicity
- oto-toxicity [2]: low oto-toxicity
- antibacterial activity [3]: useful antibacterial activity as high as that of amikacin

SMILES: C[C@H]1O[C@H](O[C@@H]2[C@@H](O)[C@H](O[C@H]3O[C@H](CN)[C@@H](O)C[C@H]3O)[C@@H](N)C[C@H]2NC(=O)[C@@H](O)CCN)[C@H](O)[C@@H](N)[C@@H]1O [3',6"-dideoxyamikacin]
- acute toxicity [1]: low acute toxicity
- oto-toxicity [2]: low oto-toxicity
- antibacterial activity [3]: useful antibacterial activity as high as that of amikacin

SMILES: NCC[C@H](O)C(=O)N[C@@H]1C[C@H](N)[C@@H](O[C@H]2O[C@H](CN)[C@@H](O)C[C@H]2O)[C@H](O)[C@H]1O[C@H]1O[C@H](CO)[C@@H](O)[C@H](N)[C@H]1O [3'-deoxyamikacin]
- acute toxicity [1]: low acute toxicity
- oto-toxicity [2]: low oto-toxicity
- antibacterial activity [3]: useful antibacterial activity as high as that of amikacin

SMILES: C[C@@H]1C[C@H](N)[C@@H](O)[C@@H](O[C@@H]2[C@@H](O)[C@H](O[C@H]3O[C@H](CN)[C@@H](O)[C@H](O)[C@H]3O)[C@@H](N)C[C@H]2NC(=O)[C@@H](O)CCN)O1 [4",6"-dideoxyamikacin]
- acute toxicity [1]: low acute toxicity
- oto-toxicity [2]: low oto-toxicity
- antibacterial activity [3]: useful antibacterial activity as high as that of amikacin

SMILES: NC[C@@H]1CC[C@@H](N)[C@@H](O[C@H]2C[C@@H](O[C@H]3O[C@H](CO)[C@@H](O)[C@H](N)[C@H]3O)[C@H](N)C[C@@H]2N)O1 [5,3',4'-trideoxykanamycin B]
- antibacterial activity [3]: less active than dibekacin; also recorded: exhibits no useful anti-bacterial activity

SMILES: C[C@H]1O[C@H](O[C@@H]2C[C@H](O[C@H]3O[C@H](CN)[C@@H](O)C[C@H]3O)[C@@H](N)C[C@H]2NC(=O)[C@@H](O)CCN)[C@H](O)[C@@H](N)[C@@H]1O [5,3',6"-trideoxyamikacin]
- acute toxicity [1]: low acute toxicity
- oto-toxicity [2]: low oto-toxicity
- antibacterial activity [3]: useful antibacterial activity as high as that of amikacin

SMILES: NCC[C@H](O)C(=O)N[C@@H]1C[C@H](N)[C@@H](O[C@H]2O[C@H](CN)[C@@H](O)C[C@H]2O)C[C@H]1O[C@H]1O[C@H](CO)[C@@H](O)[C@H](N)[C@H]1O [5,3'-dideoxyamikacin]
- acute toxicity [1]: low acute toxicity
- oto-toxicity [2]: low oto-toxicity
- antibacterial activity [3]: useful antibacterial activity as high as that of amikacin

SMILES: C[C@H]1O[C@H](O[C@@H]2[C@@H](O)[C@H](O[C@H]3O[C@H](CN)[C@@H](O)[C@H](O)[C@H]3O)[C@@H](N)C[C@H]2NC(=O)[C@@H](O)CCN)[C@H](O)[C@@H](N)[C@@H]1O [6"-deoxyamikacin]
- acute toxicity [1]: low acute toxicity
- oto-toxicity [2]: low oto-toxicity
- antibacterial activity [3]: useful antibacterial activity as high as that of amikacin

SMILES: NC[C@@H]1CC[C@@H](N)[C@@H](O[C@H]2[C@H](O)[C@@H](O[C@H]3O[C@H](CO)[C@@H](O)[C@H](N)[C@H]3O)[C@H](N)C[C@@H]2N)O1 [Dibekacin, 3',4'-dideoxykanamycin B]
- antibacterial activity [3]: active against the kanamycin-sensitive bacteria and also against various kanamycin-resistant bacteria
